Eight compounds from patent US20230016424A1, “HYBRID AMIDE DERIVATIVES OF AMPHOTERICIN B” (The Board of Trustees of the University of Illinois, priority 2019, published 2023) can be followed below.

The subject of data set [1] is C. albicans SN250, C. albicans, C. krusei, C. glabrata, C. tropicalis, A. fumigatus 91, 1163, 1100. Put plainly: Average MIC over the tested strains. In kind it is cell-based. Details: Avg. MIC of AmB amide: unit not given here. Particulars: for Avg. MIC of AmB amide: value of the corresponding C16 amide of AmB, not of the C2’epi compound.
Data set [2] has as its system A. fumigatus 91. Put plainly: MIC. The class given is cell-based.
Data set [3] relates to C. glabrata. As to the kind of experiment: MIC. The class given is cell-based.
The test system of data set [4] is C. krusei. As to the kind of experiment: MIC. The class given is cell-based.
The test system of data set [5] is C. albicans SN250. As to the kind of experiment: MIC. The class given is cell-based, Candida albicans.
Data set [6] can be described thus: Liver Microsome stability (In Vitro Metabolism). In kind it is in vitro ADME. Particulars: for Remaining (T = NCF60 min): no cofactor 60 min. How it is done:
Working Compound solution: 10 uM in 50 mM potassium phosphate buffer with 9% MeOH and 1% DMSO
Microsome solution: working concentration 0.625 mg/ml
Stopping solution: Cold ACN with 200 ng/ml Tolbutamide and 200 ng/ml Labetalol (4° C.)
Procedure: In the well plates (T5, T10, T20, T30, T60, NCF60 (no cofactor 60)) 10 uL of the compound/control working solution was added (except T0 and matric blank) followed by microsome solution (80 uL) and the mixture was incubated at 37 C for about 10 mins. A solution of potassium phosphate (10 ul of 50 mM) was added to NCF60 well, incubated at 37 C and time counting started. After prewarming 10 ul of NADPH regenerating solution was added to each plate to start the reaction. At different time point 300 uL/well of stopping solution to terminate the reaction. The sampling plates were shaken for 10 mins and the centrifuged for 20 mins at 4000 rpm. The supernatant was half diluted with ultra pure water and the analyzed using LCMS.
On the technique in general: Liver microsomes are a subcellular fraction often used to study metabolism.

The nature of data set [7]: Plasma Stability. The class given is in vitro ADME. As for the experimental part: Plasma Stability: Procedure: […] Plasma was warmed to 37° C. prior to the experiment and centrifuged for 5 mins at 4000 rpm. […] Each time point was monitored in triplicate (0, 10, 30, 60 and 120 min). 4 uL/well aliquot of the working solution was mixed to the blank plasma and incubated at 37° C. AT each time point samples were quenched with ACN stop solution containing 200 ng/ml Tolbutamide & 200 ng/ml Labetalol at 1:3 ratio and mix well on shaker for 10 min then centrifuge at 4000 rpm for 15 min. A 100 ul aliquot of supernatant was mixed with 100 μL of ultra-pure and submitted for LC-MS/MS analysis.

Data set [8] relates to C. tropicalis. Put plainly: MIC. In kind it is cell-based.
Data set [9] concerns A. fumigatus 1100. As to the kind of experiment: MIC. In kind it is cell-based.
For data set [10], the system named is C. albicans. Put plainly: MIC. The class given is cell-based.
Data set [11] has as its system A. fumigatus 1163. Put plainly: MIC. The class given is cell-based.
The mark [12] stands for this setting: Table 12, C16 amides of C2'epiAmB.
[13] abbreviates: Table 13, C16 amides of C2’epiAmB.
[14] abbreviates: Tables 8 and 9, average over the 8 listed strains.

Converted amounts (≈) assume the structure as drawn.

On to `CC1C=CC=CC=CC=CC=CC=CC=CC(OC2OC(C)C(O)C(N)C2O)CC2OC(O)(CC(O)CC(O)C(O)CCC(O)CC(O)CC(=O)OC(C)C(C)C1O)CC(O)C2C(=O)NCC(F)F` (stereo not drawn) [BQ], for which the “Average MIC” value in data set [1] (setting [12]) is 1.625 µM; in data set [1] (setting [13]) it was 1625 µM. The “Avg. MIC of AmB amide” value in data set [1] came to 0.30. In addition, the “MIC A. fumigatus 91” value in data set [2] was found to be 4000 µM (≈ 3950 µg/mL).

In the case of `CC1C=CC=CC=CC=CC=CC=CC=CC(OC2OC(C)C(O)C(N)C2O)CC2OC(O)(CC(O)CC(O)C(O)CCC(O)CC(O)CC(=O)OC(C)C(C)C1O)CC(O)C2C(=O)NC1CCCCCCCCC1` (stereo not drawn) [AR-10], in [3], the “MIC C. glabrata” value turned out to be 2000 µM (≈ 2120 µg/mL). In [4], the “MIC C. krusei” value stood at 1000 µM (≈ 1060 µg/mL). Further, the “Average MIC” value in data set [1] (setting [14]) came to 2250 µM. The “MIC C. albicans SN250” value in data set [5] was determined as 1000 µM (≈ 1060 µg/mL).

Turning to `CNC(=O)C1C(O)CC2(O)CC(O)CC(O)C(O)CCC(O)CC(O)CC(=O)OC(C)C(C)C(O)C(C)C=CC=CC=CC=CC=CC=CC=CC(OC3OC(C)C(O)C(N)C3O)CC1O2` (stereo not drawn) [AN], the CL in data set [6] (Dog liver microsomes), in data set [6] (Human liver microsomes), in data set [6] (Monkey liver microsomes), in [6] (Mouse liver microsomes) and in data set [6] (Rat liver microsomes) was less than 9.6 µL/min/mg in each case. Further, the CLint in data set [6] (Dog liver microsomes) is reported as less than 14 mL/min/kg; in [6] (Human liver microsomes) it was less than 8.6 mL/min/kg; in data set [6] (Monkey liver microsomes) it was less than 13 mL/min/kg; in [6] (Mouse liver microsomes) it was less than 38 mL/min/kg; in [6] (Rat liver microsomes) it was less than 17 mL/min/kg. Further, the “Remaining (T = 60 min)” value in [6] (Dog liver microsomes) is on record as 92.4%; in data set [6] (Human liver microsomes), 104%; in [6] (Monkey liver microsomes), 139%; in data set [6] (Mouse liver microsomes), 102%; in data set [6] (Rat liver microsomes) it was 106%. Moreover, the T1/2 in data set [6] (Dog liver microsomes), in data set [6] (Human liver microsomes), in [6] (Monkey liver microsomes), in data set [6] (Mouse liver microsomes) and in data set [6] (Rat liver microsomes) was more than 2.42 h each time. The “Remaining (T = NCF60 min)” value in [6] (Dog liver microsomes) is 113%; in data set [6] (Human liver microsomes), 127%; in data set [6] (Monkey liver microsomes), 135%; in data set [6] (Mouse liver microsomes), 131%; in data set [6] (Rat liver microsomes), 93%. Further, the “% Remaining at 120 min” value in [7] (Human Plasma) turned out to be 106%; in data set [7] (Rat Plasma) it was 118%. Besides, the “Half Life” value in data set [7] (Human Plasma) and in data set [7] (Rat Plasma) was more than 4.82 h in each case.

With `CC1C=CC=CC=CC=CC=CC=CC=CC(OC2OC(C)C(O)C(N)C2O)CC2OC(O)(CC(O)CC(O)C(O)CCC(O)CC(O)CC(=O)OC(C)C(C)C1O)CC(O)C2C(=O)NC1COCC1O` (stereo not drawn) [BR], the “Average MIC” value in [1] (setting [12]) worked out at 1.688 µM; in [1] (setting [13]), 1250 µM. Moreover, the “Avg. MIC of AmB amide” value in data set [1] came out at 0.38. Besides, the “MIC C. tropicalis” value in data set [8] stood at 500 µM (≈ 505 µg/mL).

Regarding `CC1C=CC=CC=CC=CC=CC=CC=CC(OC2OC(C)C(O)C(N)C2O)CC2OC(O)(CC(O)CC(O)C(O)CCC(O)CC(O)CC(=O)OC(C)C(C)C1O)CC(O)C2C(=O)NC1CCCCCCCCCCC1` (stereo not drawn) [AR12], the “MIC A. fumigatus 1100” value in [9] turned out to be 8000 µM (≈ 8720 µg/mL). The “MIC C. krusei” value in data set [4] came out at 8000 µM (≈ 8720 µg/mL). Further, the “Average MIC” value in data set [1] (setting [14]) was found to be 5000 µM. In addition, in data set [8], the “MIC C. tropicalis” value stood at 3000 µM (≈ 3270 µg/mL). For the same compound, in data set [10], the “MIC C. albicans” value was 2000 µM (≈ 2180 µg/mL).

In the case of `CC1C=CC=CC=CC=CC=CC=CC=CC(OC2OC(C)C(O)C(N)C2O)CC2OC(O)(CC(O)CC(O)C(O)CCC(O)CC(O)CC(=O)OC(C)C(C)C1O)CC(O)C2C(=O)NC1CCCCCC1` (stereo not drawn) [AR7], the “MIC C. glabrata” value in data set [3] stood at 2000 µM (≈ 2040 µg/mL). Also, the “MIC C. krusei” value in [4] came out at 1000 µM (≈ 1020 µg/mL). The “Average MIC” value in data set [1] (setting [14]) is 1469 µM.

For the compound `CC1C=CC=CC=CC=CC=CC=CC=CC(OC2OC(C)C(O)C(N)C2O)CC2OC(O)(CC(O)CC(O)C(O)CCC(O)CC(O)CC(=O)OC(C)C(C)C1O)CC(O)C2C(=O)NC1CCCCC1` (stereo not drawn) [AR6], the “MIC A. fumigatus 1163” value in data set [11] was 1000 µM (≈ 1010 µg/mL). In data set [9], the “MIC A. fumigatus 1100” value came to 1500 µM (≈ 1510 µg/mL). The “MIC C. glabrata” value in [3] turned out to be 750 µM (≈ 754 µg/mL). Also, in data set [1] (setting [14]), the “Average MIC” value came out at 891 µM. In data set [8], the “MIC C. tropicalis” value came out at 500 µM (≈ 503 µg/mL). The “MIC C. albicans SN250” value in data set [5] came to 500 µM (≈ 503 µg/mL).

With `CC1C=CC=CC=CC=CC=CC=CC=CC(OC2OC(C)C(O)C(N)C2O)CC2OC(O)(CC(O)CC(O)C(O)CCC(O)CC(O)CC(=O)OC(C)C(C)C1O)CC(O)C2C(=O)NC1CCC1` (stereo not drawn) [AR4], the “MIC A. fumigatus 1163” value in data set [11] was 1000 µM (≈ 977 µg/mL). Besides, the “MIC C. krusei” value in [4] amounted to 550 µM (≈ 537 µg/mL). The “Average MIC” value in data set [1] (setting [14]) was 750 µM. For the same compound, the “MIC C. tropicalis” value in [8] came to 500 µM (≈ 489 µg/mL). Besides, the “MIC C. albicans SN250” value in [5] stood at 500 µM (≈ 489 µg/mL).
